We go through twelve compounds from ChEMBL document CHEMBL1201862, “PubChem BioAssay data set” (2004).

Each structure is given as a SMILES string.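 Method: 48-hour compound exposure of cells in 96-well plates, five concentrations, linear interpolation of endpoints. Here, GI50 denotes the concentration required for 50% inhibition of growth.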 The source made the active and inactive calls. Cut-off read from the data, not from the text of the source: active = GI50 up to about 1.1 µM and inactive = higher. Where only a bound is given, the exact number is not on record here.

Some test systems named below: OVCAR-5; EKVX; NCI-H522; UACC-62; K562; 786-0; OVCAR-3; HL-60; UACC-257; SK-OV-3; SW-620; A549; NCI-H23; CCRF-CEM; IGROV-1; SF-268.
What all share (assay): NCI-60 cell line screen, 48 h

In the case of `COc1cc(OC)cc(C(=O)NC2=C(Cl)C(=O)c3ccccc3C2=O)c1`, the GI50 is 4.92 µM (inactive) in the test with OVCAR-5; 9.75 µM (inactive) in the test with EKVX; 0.728 µM (active) in the test on NCI-H522; 0.361 µM (active) in the test with UACC-62; 0.798 µM (active) with K562; 2.96 µM (inactive) in the test on 786-0. The GI50 with OVCAR-3 is 1.88 µM (inactive); in the test with HL-60, 0.189 µM (active); with UACC-257 it was 1.99 µM (inactive); with SK-OV-3, 2.49 µM (inactive); with SW-620, 1.01 µM (active); in the test with A549, 4.34 µM (inactive). The GI50 in the test with NCI-H23 is 2.43 µM (inactive); with CCRF-CEM, 0.355 µM (active); in the test with IGROV-1, 2.18 µM (inactive); in the test on SF-268, 6.12 µM (inactive).
For `COc1cc2c(cc1OC)C(=O)N(c1ccc(OCCN3CCCC3)cc1)C2=O`, the GI50 in the test with OVCAR-5, in the test with EKVX, with NCI-H522, in the test on UACC-62, in the test on K562 and in the test on 786-0 was > 100 µM (inactive) throughout. Further, the GI50 in the test with OVCAR-3, in the test with HL-60, in the test with UACC-257, in the test on SK-OV-3, in the test on SW-620 and in the test on A549 was > 100 µM (inactive) each time. For the same compound, the GI50 in the test with NCI-H23, with CCRF-CEM, in the test on IGROV-1 and with SF-268 was > 100 µM (inactive) each time.
Regarding `CC(=O)Nc1ccc2c3c(cc(O)c2c1)N(C(=O)CCCCCCC(=O)N1CC(CCl)c2c1cc(O)c1cc(NC(C)=O)ccc21)CC3CCl` (configuration not stated), the GI50 with OVCAR-5 is 0.0325 µM (active); in the test on EKVX, 0.0505 µM (active); in the test with NCI-H522, < 0.01 µM (active); in the test on UACC-62, < 0.01 µM (active); with K562, < 0.0125 µM (active); in the test on 786-0, < 0.01 µM (active). Besides, the GI50 with OVCAR-3 is < 0.01 µM (active); with HL-60, < 0.01 µM (active); in the test on UACC-257 it was 0.0104 µM (active); in the test with SK-OV-3 it was 0.017 µM (active); with SW-620, 0.0151 µM (active); with A549, 0.0113 µM (active). Also, the GI50 was < 0.01 µM (active) in the test on NCI-H23, < 0.01 µM (active) with CCRF-CEM, 0.015 µM (active) in the test on IGROV-1 and < 0.01 µM (active) in the test on SF-268.
For the compound `O=C(O)CC(C(=O)O)c1ccccc1[N+](=O)[O-]` (configuration not stated), the GI50 in the test on OVCAR-5, in the test with EKVX, in the test with NCI-H522, with UACC-62, in the test with K562 and with 786-0 was > 100 µM (inactive) each time. Moreover, the GI50 in the test with OVCAR-3, in the test with HL-60, in the test with UACC-257, in the test on SK-OV-3, in the test on SW-620 and in the test on A549 was > 100 µM (inactive) each time. The GI50 in the test on NCI-H23, with CCRF-CEM, with IGROV-1 and in the test with SF-268 was > 100 µM (inactive) in each case.
Turning to `O=C(NO)NCCCl`, the GI50 with OVCAR-5, with EKVX, with NCI-H522, with UACC-62, in the test with K562 and in the test with 786-0 was > 100 µM (inactive) throughout. Besides, the GI50 in the test on OVCAR-3, with HL-60, in the test with UACC-257, in the test on SK-OV-3, in the test with SW-620 and with A549 was > 100 µM (inactive) throughout. The GI50 with NCI-H23, in the test with CCRF-CEM, with IGROV-1 and with SF-268 was > 100 µM (inactive) in each case.
Regarding `CCCCCCCCCCCCc1ccsc1-c1ccc(-c2ccc(-c3sc(-c4cc(CCCCCCCCCCCC)c(-c5ccc(-c6ccc(-c7sccc7CCCCCCCCCCCC)s6)s5)s4)cc3CCCCCCCCCCCC)s2)s1`, the GI50 with OVCAR-5, in the test with EKVX, with NCI-H522, in the test on UACC-62, with K562 and in the test with 786-0 was > 100 µM (inactive) each time. The GI50 in the test with OVCAR-3 was > 100 µM (inactive); with HL-60 it was 19.3 µM (inactive); in the test with UACC-257 it was > 100 µM (inactive); with SK-OV-3, > 100 µM (inactive); with SW-620, > 100 µM (inactive); in the test on A549, > 100 µM (inactive). For the same compound, the GI50 is > 100 µM (inactive) in the test on NCI-H23, 38.3 µM (inactive) in the test with CCRF-CEM, > 100 µM (inactive) in the test with IGROV-1 and > 100 µM (inactive) with SF-268.
Consider `O=C1c2ccccc2C(=O)c2c1nc1ccccc1c2-c1cncc(-c2c3c(nc4ccccc24)C(=O)c2ccccc2C3=O)c1`, for which the GI50 in the test on OVCAR-5 was 50.2 µM (inactive); with EKVX, 3.85 µM (inactive); in the test on NCI-H522 it was 1.95 µM (inactive); in the test on UACC-62, 5.65 µM (inactive); with K562 it was 1.31 µM (inactive); in the test with 786-0 it was 9.82 µM (inactive). For the same compound, the GI50 in the test on OVCAR-3 was 5.7 µM (inactive); in the test on HL-60, 1.75 µM (inactive); with UACC-257, 8.63 µM (inactive); in the test with SK-OV-3, > 77.1 µM (inactive); in the test with SW-620, 6.15 µM (inactive); with A549, 3.29 µM (inactive). Moreover, the GI50 in the test with NCI-H23 is 1.18 µM (inactive); in the test on CCRF-CEM, 0.562 µM (active); in the test on IGROV-1 it was 0.0596 µM (active); in the test with SF-268, 6.08 µM (inactive).
`C=C1CC2(CC(c3ccccc3Cl)OC(c3ccccc3Cl)C2)OC1=O` (configuration not stated): the GI50 is 8.73 µM (inactive) in the test on OVCAR-5; 8.34 µM (inactive) in the test with EKVX; 1.72 µM (inactive) with NCI-H522; 1.94 µM (inactive) with UACC-62; 2.26 µM (inactive) in the test with K562; 2 µM (inactive) in the test with 786-0. For the same compound, the GI50 in the test with OVCAR-3 was 2.91 µM (inactive); in the test with HL-60, 1.05 µM (active); in the test with UACC-257 it was 2.08 µM (inactive); with SK-OV-3, 6.87 µM (inactive); in the test with SW-620, 1.98 µM (inactive); in the test on A549, 7.74 µM (inactive). Further, the GI50 with NCI-H23 is 3.83 µM (inactive); in the test with CCRF-CEM, 1.96 µM (inactive); in the test with IGROV-1, 2.02 µM (inactive); in the test with SF-268, 2.27 µM (inactive).
In the case of `COc1cccc2c1C(=O)c1ccc3cc(CO)cc(O)c3c1C2=O`, the GI50 was 2.09 µM (inactive) in the test with OVCAR-5; 1.87 µM (inactive) in the test on EKVX; 0.865 µM (active) in the test with NCI-H522; 0.279 µM (active) in the test with UACC-62; 1.41 µM (inactive) with K562; 0.619 µM (active) with 786-0. In addition, the GI50 in the test on OVCAR-3 is 0.169 µM (active); with HL-60, 0.171 µM (active); in the test with UACC-257, 0.0879 µM (active); in the test with SK-OV-3, 2.33 µM (inactive); in the test on SW-620 it was 0.19 µM (active); with A549 it was 0.624 µM (active). The GI50 in the test on NCI-H23 is 0.288 µM (active); in the test on CCRF-CEM it was 0.204 µM (active); in the test with IGROV-1, 1.38 µM (inactive); in the test with SF-268, 0.815 µM (active).
Turning to `C=CC(C1=CC(=O)C(OC)=CC1=O)c1ccccc1` (configuration not stated) [4-METHOXYDALBERGIONE], the GI50 was 20.3 µM (inactive) with OVCAR-5; 16.1 µM (inactive) in the test on EKVX; 6.93 µM (inactive) with NCI-H522; 14.6 µM (inactive) in the test on UACC-62; 3.33 µM (inactive) in the test with K562; 14.1 µM (inactive) in the test with 786-0. For the same compound, the GI50 in the test on OVCAR-3 is 17.2 µM (inactive); in the test with HL-60, 2.38 µM (inactive); in the test with UACC-257 it was 19.2 µM (inactive); with SK-OV-3, 17.3 µM (inactive); in the test on SW-620 it was 19.5 µM (inactive); with A549 it was 25.4 µM (inactive). The GI50 in the test with NCI-H23 is 16.1 µM (inactive); in the test with CCRF-CEM, 1.91 µM (inactive); with IGROV-1 it was 16.4 µM (inactive); in the test with SF-268, 16.3 µM (inactive).
Take `c1ccc2c(c1)CCN1CCc3ccccc3C1C2` (configuration not stated): the GI50 with OVCAR-5 is 38.4 µM (inactive); in the test on EKVX, 40.4 µM (inactive); in the test with NCI-H522 it was 51.9 µM (inactive); in the test on UACC-62 it was 29.7 µM (inactive); with K562, 31.2 µM (inactive); in the test with 786-0, 25.1 µM (inactive). Moreover, the GI50 was 99.1 µM (inactive) with OVCAR-3; 76.9 µM (inactive) with HL-60; 62.4 µM (inactive) with UACC-257; 64 µM (inactive) in the test on SK-OV-3; 64.6 µM (inactive) in the test on SW-620; 35.8 µM (inactive) in the test with A549. In addition, the GI50 in the test with NCI-H23 is 59.7 µM (inactive); in the test with CCRF-CEM it was 58.7 µM (inactive); with IGROV-1, 48 µM (inactive); in the test with SF-268, 32.2 µM (inactive).
For `CCSc1nnc(Sc2c3ccccc3nc3ccccc23)s1`, the GI50 with OVCAR-5 is 20 µM (inactive); with EKVX, 11.6 µM (inactive); in the test on NCI-H522, 2.37 µM (inactive); in the test on UACC-62 it was 15 µM (inactive); in the test with K562, 3.8 µM (inactive); with 786-0 it was 2.84 µM (inactive). Besides, the GI50 in the test with OVCAR-3 is 13.1 µM (inactive); with HL-60, 0.692 µM (active); with UACC-257, 7.98 µM (inactive); in the test with SK-OV-3, > 78 µM (inactive); with SW-620, 5.45 µM (inactive); in the test with A549, > 60.7 µM (inactive). In addition, the GI50 was 20.2 µM (inactive) in the test with NCI-H23, 2.64 µM (inactive) in the test on CCRF-CEM, 17.3 µM (inactive) in the test on IGROV-1 and 19.3 µM (inactive) with SF-268.
